Structures can show the parent of a compound that is named as a salt. Where two headings read alike, the source gives them in different places.
Legend:
[1] = target: T1, 5-HT3 (Homo sapiens, UniProt P46098); assay: radioligand competition binding, [3H]BRL 43694; conditions: read-out: % inhibition of the specific radioligand binding
T1 construct: Eurofins

[2] = target: T2, Melatonin receptor MT1 (Homo sapiens, UniProt P48039); assay: radioligand competition binding, [125I]2-Iodomelatonin
T2 construct: Eurofins

[3] = target: T3, Opioid receptor μ (Homo sapiens, UniProt P35372); assay: radioligand competition binding, [3H]Diprenorphine (second line)
T3 construct: Eurofins

[4] = tested on: Purinergic receptor P2Y; assay: radioligand competition binding, [35S]dATPαS; design: species or system rat
[5] = target: T4, Opioid receptor δ (Homo sapiens, UniProt P41143); assay: radioligand competition binding, [3H] Naltrindole
T4 construct: Eurofins

[6] = target: T5, D4.4 (dopaminergic receptor) (Homo sapiens, UniProt P21917); assay: radioligand competition binding, [3H]methyl-spiperone; conditions: read-out: % inhibition of the specific radioligand binding
T5 construct: Eurofins

[7] = target: NMDA receptor (Glutamate) (Rattus norvegicus, UniProt Q00959); assay: biochemical; conditions: read-out: % inhibition of the specific radioligand binding
[8] = target: T6, D1 (dopaminergic receptor) (Homo sapiens, UniProt P21728); assay: radioligand competition binding, [3H]SCH 23390; conditions: read-out: % inhibition of the specific radioligand binding
T6 construct: Eurofins

[9] = target: T7, DAT (Homo sapiens, UniProt Q01959); assay: radioligand competition binding, [3H]BTCP
T7 construct: Eurofins

[10] = LogP / log D determination, 1-octanol/phosphate buffer; format: physicochemical
Experimental: LogP Log D log D log D log D log D log D log D
Phosphate buffer (PB) with the pH ranging from 1.8 to 12.0 and Octanol saturated with water was used. 2 μL of 10 mM DMSO stock solution of test and control compounds was aliquoted into tubes in duplicate. Added 149 μL of PB (pH 1.8, 2.5, 4.5, 7.4, 9.5,11.0 and 12.0)-Saturated […]
was added, respectively. Each of the tubes was vigorously mixed for 2 minutes and then shook for 1 hour at a speed of 800 rpm at room temperature. Following centrifugation at 4000 rpm for 5 minutes at room temperature, appropriate volume of buffer layer samples and 1-octanol layer samples was aliquoted. These samples were diluted and detected by using LC -MS/MS method without running a calibration curve.
The log D values were calculated with the following equation:
(also on this page, place not known: temperature , 1 -octanol Log Doctanol/buffer = log( Mean Octanol Layer Peak Area Ratio ∗ Octanol Layer Dilution Factor Mean Buffer Layer Peak Area Ratio ∗ Buffer Layer Dilution Factor) […]
(1 picture or pasted object on this page, not shown here)

[11] = target: T8, α1D (adrenergic receptor) (Homo sapiens, UniProt P25100); assay: radioligand competition binding, [3H]Prazosin
T8 construct: Eurofins

[12] = target: T9, 5-HT1A (Homo sapiens, UniProt P08908); assay: radioligand competition binding, [3H]8-OH-DPAT
T9 construct: Eurofins
T9 sequence (P08908 1-422): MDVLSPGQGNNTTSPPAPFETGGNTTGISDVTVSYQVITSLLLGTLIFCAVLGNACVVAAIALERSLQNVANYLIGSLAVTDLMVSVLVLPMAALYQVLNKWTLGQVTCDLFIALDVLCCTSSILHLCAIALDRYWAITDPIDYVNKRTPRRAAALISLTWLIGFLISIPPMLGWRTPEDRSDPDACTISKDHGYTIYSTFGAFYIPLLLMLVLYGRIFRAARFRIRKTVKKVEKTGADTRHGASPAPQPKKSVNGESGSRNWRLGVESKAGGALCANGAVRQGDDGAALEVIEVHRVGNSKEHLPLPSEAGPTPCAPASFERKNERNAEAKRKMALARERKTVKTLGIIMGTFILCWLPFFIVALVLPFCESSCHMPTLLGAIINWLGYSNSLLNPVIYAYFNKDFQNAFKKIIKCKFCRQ

[13] = tested on: various other targets (Table S4); assay: broad screen, radioligand binding competition assays (Eurofins), summary; conditions: high nanomolar or micromolar ranges
[14] = target: T10, Opioid receptor κ (Homo sapiens, UniProt P41145); assay: radioligand competition binding, [3H]Diprenorphine (first line)
T10 construct: Eurofins

[15] = target: T11, D3 (dopaminergic receptor) (Homo sapiens, UniProt P35462); assay: radioligand competition binding, [3H]methyl-spiperone; conditions: read-out: % inhibition of the specific radioligand binding
T11 construct: Eurofins

[16] = estimated from the % inhibition data
[17] = read-out: % inhibition of the specific radioligand binding

With `COc1cc(C(F)(F)F)c(OC)cc1[C@@H]1CCCNC1` [(S)-11, 3-(2,5-Dimethoxy-4-(trifluoromethyl)phenyl)piperidine Hydrochloride] as the molecule, how does the inhibition at 10 µM [1] read?
Its inhibition at 10 µM is 6%.

What about the IC50 [2, 16] of the same molecule?
The IC50 was over 10 µM.

What about the inhibition at 10 µM [2, 17] of the same molecule?
Its inhibition at 10 µM is 7%.

What about the IC50 [3, 16] of the same molecule?
The IC50 was over 10 µM.

And the inhibition at 10 µM [3, 17]?
The inhibition at 10 µM was 18%.

And the “% inhibition of the specific radioligand binding” value ([4]; (S)-11 10 μM, n=1)?
Its value is 2%.

And the IC50 [4, 16]?
Its IC50 is over 10 µM.

What about the IC50 [5, 16] of the same molecule?
Its IC50 is over 10 µM.

And the inhibition at 10 µM [5, 17]?
The inhibition at 10 µM was 18%.

And the inhibition at 10 µM [6]?
The inhibition at 10 µM was 9%.

And the inhibition at 10 µM [7]?
The inhibition at 10 µM was -8%.

And the inhibition at 10 µM [8]?
The inhibition at 10 µM was 30%.

What about the IC50 [9, 16] of the same molecule?
Its IC50 is over 10 µM.

And the inhibition at 10 µM [9, 17]?
Its inhibition at 10 µM is 12%.

And the logP at 1 h ([10]; main text and Figure 6)?
The logP at 1 h was 3.45.

And the logD ([10]; pH 1.8, read-out: Log D (pH 1.8))?
Its logD is -0.815.

And the logD ([10]; pH 2.5, read-out: log D (pH2.5))?
Its logD is -0.536.

And the logD ([10]; pH 4.5, read-out: log D (pH4.5))?
Its logD is -0.376.

What about the logD ([10]; pH 7.4, read-out: log D (pH7.4)) of the same molecule?
The logD was 0.659.

And the logD ([10]; pH 9.5, read-out: log D (pH9.5))?
The logD was 1.99.

And the logD ([10]; pH 11.0, read-out: log D (pH11.0))?
The logD was 3.4.

What about the logD ([10]; pH 12.0, read-out: log D (pH12.0)) of the same molecule?
The logD was 3.5.

What about the IC50 [11, 16] of the same molecule?
Its IC50 is over 10 µM.

And the inhibition at 10 µM [11, 17]?
Its inhibition at 10 µM is 27%.

And the IC50 [12, 16]?
Its IC50 is 0.1 to 1 µM.

What about the inhibition at 0.1 µM [12, 17] of the same molecule?
Its inhibition at 0.1 µM is 20%.

What about the inhibition at 1 µM [12, 17] of the same molecule?
The inhibition at 1 µM was 64%.

What about the inhibition at 10 µM [12, 17] of the same molecule?
Its inhibition at 10 µM is 90%.

What about the “binding affinities at the respective targets of the broad screen” value [13] of the same molecule?
Its value is over 100 nM.

What about the IC50 [14, 16] of the same molecule?
Its IC50 is over 10 µM.

What about the inhibition at 10 µM [14, 17] of the same molecule?
The inhibition at 10 µM was 18%.

And the inhibition at 10 µM [15]?
Its inhibition at 10 µM is 40%.
